Values joined by “and” are separate entries in the source; they are usually repeats but may differ in a detail not shown here. Equal entries are not always repeated. “Also recorded” adds a separate entry of the source. Where two headings read alike, the source gives them in different places.
Columns and labels:
[1] = test system: Enterococcus faecalis (E. faecalis); assay: MIC by broth microdilution; type: cell-based
Procedure: (§1) The methicillin resistant Staphylococcus aureus (MRSA) and Pseudomonas aeruginosa (PA) strains used in this study are clinical isolates obtained from an adult CF patient at the Cystic Fibrosis Clinic at the OU Children's Hospital (Oklahoma City, Okla.). Escherichia coli (E. coli) and Enterococcus faecalis (E. faecalis) were obtained from American Type Culture Collection (ATCC). The strains were grown overnight with shaking at 37° C. (220 RPM) in 15 mL of Luria-Bertani (LB) broth. The overnight culture was sub-cultured the next day before use for the MIC experiments. All sub-cultures consisted of 1 mL of the overnight culture, mixed with 10 mL of Mueller Hinton broth. The working stock of the EIPE-1 and DBI was prepared by dissolving 1 mg of each in 1 mL of DMSO.
(§2) The minimum inhibitory concentrations (MICs) were determined by the broth microdilution method, following the guidelines of the Clinical and Laboratory Standards Institute (CLSI). Two-fold serial dilutions of EIPE-1, DBI, and Arm (starting with 1 mg/mL) were prepared in a 100 μL volume in 96-well microtiter plates. The dilution series included DMSO as a negative control. The bacterial culture (900 μL) was normalized to an OD600 of 0.2 and was then added to each well. Plates were incubated with shaking at 220 RPM at 37° C., and the MIC was determined based on the lowest concentration at which no visible growth of the bacterial isolate was observed.
(§3) In order to determine the MIC of EIPE-1 on MRSA, a culture of MRSA was grown overnight in Mueller Hinton broth (MHB) at 37° C., sub-cultured by a 1/100 dilution into MHB and dispensed into a 96 well culture block (900 μL of diluted culture in each well). To each well either DMSO or a serial dilution of EIPE-1 was added, then the culture was grown for 18 h at 37° C. The next day each well was tested for either growth or inhibition of growth by measuring of the OD^600 of the resulting culture. […] For comparison, the MIC of EIPE-1 was also determined against E. faecalis (8 μg/mL, 9 μM), confirming activity against Gram-positive bacteria.

[2] = test system: methicillin resistant Staphylococcus aureus (MRSA) clinical isolate; assay: MIC by broth microdilution; type: cell-based; settings: Staphylococcus aureus, MRSA, 18 h, clinical isolate of MRSA from an adult CF patient; broth culture, 18 h at 37° C.; read-out: minimum inhibitory concentration (MIC)
Procedure: as §1, §2, §3

MRSA = assay: Scanning electron microscopy of treated bacteria; type: cell-based, Staphylococcus aureus; settings: 0.01 mg/mL for 30 minutes
Procedure: MRSA was grown overnight in 10 mL of LB broth, sub-cultured (5 mL of overnight culture added to 20 mL LB) and grown for 3 h. MRSA culture (300 μL) were removed, placed into a 1.5 mL tube, and treated with DMSO or EIPE-1 (0.01 mg/mL) for 30 minutes. Each sample was placed on glass coverslips (treated with poly-L-lysine) in a 24 well plate and fixed with 2% glutaraldehyde (in 0.1 M sodium cacodylate buffer) for 2 h at room temperature. After fixation, samples were washed three times with 0.1 M sodium cacodylate buffer. Samples were then fixed with 1% osmium tetroxide in water for 1 h at room temperature and were then washed three times with 0.1 M sodium cacodylate buffer. The samples were then dehydrated with an ethanol series (once with 50%, 70%, 90%, 95% and thrice with 100% ethanol). Samples were dried using hexamethyldisilazane (HAMIDS) and then were mounted on stubs. Finally, samples were coated with gold and palladium using an automated sputter coater. Micrographs were acquired using Quanta 600 Scanning electron microscope.
To visualize potential membrane changes, DMSO and EIPE-1 treated MRSA were prepped and visualized by scanning electron microscopy (FIG. 4B). […] FIG. 4(C) contains bar charts that show the percentage of live and dead MRSA from 20 microscopy fields of view.

[3] = test system: Pseudomonas aeruginosa (PA); assay: Comparison with Methicillin and Gentamicin, recoverable CFU; type: cell-based; settings: compared with Methicillin and Gentamicin treatment
Procedure: To determine CFUs of PA and MRSA after exposure to DMSO, DBI, EIPE-1, Gentamicin or Methicillin, 10-fold serial dilutions were prepared in 96-well micro plates using multichannel pipettes. For each dilution, 25 ptL of each sample was pipetted onto a plate containing agar medium and incubated for 18 h at 37° C. The number of colonies for each dilution were counted and used to back calculate the number of bacteria per mL (CFU/mL) in each original bacterial culture.
EIPE-1 antimicrobial activity against MRSA and PA was compared to that of Methicillin and Gentamicin treatment. Bacterial cultures were grown, normalized and then exposed to either DBI, DMSO (solvent control), EIPE-1, Methicillin or Gentamicin (FIG. 3). […] This is highly significant and novel as methicillin resistance is a huge problem in hospitals and patient treatment worldwide. […] Gram-negative bacteria like PA have an outer membrane covered with lipopolysaccharides that protects the bacteria from antibiotics, dyes, and detergents from penetrating the bacterial cell.

[4] = test system: Escherichia coli (E. coli); assay: Antimicrobial activity against E. coli; type: cell-based
Procedure: as §1
as §2, with “The bacterial culture (900 μL) was normalized to an OD600 of 0.2 and was then added to each well.” left out

S. aureus ATCC 25923 = assay: MIC and MBC values (Table 2); type: cell-based, Staphylococcus aureus
C. neoformans = assay: Scanning electron microscopy of treated fungal cells; type: cell-based, Cryptococcus neoformans; settings: exposed at the minimum inhibitory concentration 1.749 μg/mL for 4, 8, 12 or 24 hrs
Procedure: C. neoformans were suspended in RPMI with MOPs, 0.165M, at a concentration of 2.0×10^6 cells/mL. RPMI Mops media was added to a 2 mL collection tube in a volume of 100 μL. […] The tubes were incubated at 35° C. in a humid incubator for set time points of 4 hrs, 8 hrs, 12 hrs, or 24 hrs. Once removed, the tubes were placed in a centrifuge for 1 min. at 5000 rpm. Media was removed. The pellet was resuspended in 2.0% glutaraldehyde in 0.1 M cacodylate buffer at a volume of 1 mL for a minimum of 2 hrs.
Fixed C. neoformans cells were placed in a centrifuge for 1 min at 5000 rpm. Media was removed and C. neoformans was rinsed 3 times in a buffered wash at fixed intervals of 15 mins. Rinsed cells were resuspended in 1% OsO4 at room temperature for 1 hr in a 36-well plate with a cover slip. 1% OsO4 was removed. C. neoformans was rinsed 3 times in a buffered wash at fixed intervals of 15 mins. C. neoformans were dehydrated in ethanol at 50%, 70%, 90%, 95%, and 100% three times at fixed intervals of 15 mins. C. neoformans were wash two times with […] at a time interval of 5 mins. Cover slips were placed on a clear sheet for 12 hrs to dry. Cover slips were mounted on stubs with silver paint. The cover slips were covered in an Au—Pd coat. […]

COC(=O)c1cc2c(C#Cc3ccc(OCCC[N+](C)(C)C)cc3)c(OC)c(OC)c(C#Cc3ccc(OCCC[N+](C)(C)C)cc3)c2n1C [EIPE-1, 3,3′-((((5,6-dimethoxy-2-(methoxycarbonyl)-1-methyl-1H-indole-4,7-diyl)bis(ethyne-2,1-diyl))bis(4,1-phenylene))bis(oxy))bis(N,N,N-trimethylpropan-1-aminium) iodide]
MIC [1]: 8 µg/mL and 9 µM
MIC [2]: 16 µg/mL and 17.1 µM
cell membrane appearance by SEM (MRSA): cell membrane damage; also recorded: damaged cell membranes
activity against PA [3]: does not appear to have activity; also recorded: did not display any activity
activity against E. coli [4]: did not display any activity
MBC (S. aureus ATCC 25923; Staphylococcus aureus, ATCC25923, repeated determinations): 2 µg/mL
MIC (S. aureus ATCC 25923; Staphylococcus aureus, ATCC25923, repeated determinations, read-out: MIC): 2 µg/mL
MIC (S. aureus ATCC 25923; repeated determinations): 1.000 µg/mL
cell wall changes by SEM (C. neoformans): structural changes to their cell wall; also recorded: changes to the cell wall shown at 4 hours

From patent US11730717B1, “Melanin-inspired antimicrobial” (The Board of Regents for the Oklahoma Agricultural and …, priority 2020, dated 2023)
